Experiments:
[1] = biological target: 72 kDa type IV collagenase (Homo sapiens, UniProt P08253); assay: Inhibition of human […], matrix metalloprotease-2
[2] = biological target: T1, Interstitial collagenase (Homo sapiens, UniProt P03956); assay: Inhibition of human fibroblast collagenase, matrix metalloprotease-1
T1 sequence (P03956 whole entry): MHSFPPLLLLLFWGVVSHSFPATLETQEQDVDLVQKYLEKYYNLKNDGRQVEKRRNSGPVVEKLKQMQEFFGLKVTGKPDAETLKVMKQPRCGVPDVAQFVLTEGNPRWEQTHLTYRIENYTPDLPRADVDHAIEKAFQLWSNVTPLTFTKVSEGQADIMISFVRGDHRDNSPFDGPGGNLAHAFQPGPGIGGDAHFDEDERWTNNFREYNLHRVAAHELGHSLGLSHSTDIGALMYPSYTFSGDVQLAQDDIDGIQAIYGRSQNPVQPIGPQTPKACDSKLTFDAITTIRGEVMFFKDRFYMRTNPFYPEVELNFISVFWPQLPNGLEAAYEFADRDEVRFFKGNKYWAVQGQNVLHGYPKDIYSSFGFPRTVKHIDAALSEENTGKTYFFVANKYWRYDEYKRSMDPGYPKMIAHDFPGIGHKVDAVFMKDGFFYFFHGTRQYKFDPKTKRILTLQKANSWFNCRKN

[3] = biological target: Stromelysin-1 (Homo sapiens, UniProt P08254); assay: Inhibition of human fibroblast stromelysin, matrix metalloprotease-3
[4] = biological target: Neutrophil collagenase (Homo sapiens, UniProt P22894); assay: Inhibition of human Matrix metalloprotease-8
[5] = biological target: T2, Matrilysin (Homo sapiens, UniProt P09237); assay: Inhibition of Matrix metalloprotease-7
T2 sequence (P09237 whole entry): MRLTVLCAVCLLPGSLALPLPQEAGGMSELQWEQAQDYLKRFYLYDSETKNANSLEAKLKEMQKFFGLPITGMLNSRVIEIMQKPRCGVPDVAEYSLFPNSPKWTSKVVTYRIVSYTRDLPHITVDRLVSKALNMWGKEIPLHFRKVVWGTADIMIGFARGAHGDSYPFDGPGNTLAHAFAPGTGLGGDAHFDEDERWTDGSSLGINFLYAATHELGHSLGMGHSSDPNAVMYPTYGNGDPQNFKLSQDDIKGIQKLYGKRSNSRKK

Chain of 72 kDa type IV collagenase (P08253 whole entry): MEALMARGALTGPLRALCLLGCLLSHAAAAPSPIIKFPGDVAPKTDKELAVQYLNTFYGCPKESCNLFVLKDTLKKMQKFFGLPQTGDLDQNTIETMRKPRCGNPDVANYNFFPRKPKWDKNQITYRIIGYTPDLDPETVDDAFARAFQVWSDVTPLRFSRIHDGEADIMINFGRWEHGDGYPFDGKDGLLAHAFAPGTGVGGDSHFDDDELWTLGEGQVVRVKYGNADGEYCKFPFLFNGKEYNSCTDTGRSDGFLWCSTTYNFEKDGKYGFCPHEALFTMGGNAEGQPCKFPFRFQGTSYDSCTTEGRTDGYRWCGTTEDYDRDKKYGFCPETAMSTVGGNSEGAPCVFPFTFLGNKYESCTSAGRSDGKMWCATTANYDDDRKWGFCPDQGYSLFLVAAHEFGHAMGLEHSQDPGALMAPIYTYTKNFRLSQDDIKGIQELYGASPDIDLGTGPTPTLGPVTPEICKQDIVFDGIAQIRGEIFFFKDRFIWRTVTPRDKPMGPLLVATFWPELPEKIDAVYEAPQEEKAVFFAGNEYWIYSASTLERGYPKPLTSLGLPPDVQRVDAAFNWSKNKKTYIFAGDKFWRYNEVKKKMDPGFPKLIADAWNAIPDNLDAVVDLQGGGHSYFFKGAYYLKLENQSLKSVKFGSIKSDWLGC
Chain of Neutrophil collagenase (P22894 whole entry): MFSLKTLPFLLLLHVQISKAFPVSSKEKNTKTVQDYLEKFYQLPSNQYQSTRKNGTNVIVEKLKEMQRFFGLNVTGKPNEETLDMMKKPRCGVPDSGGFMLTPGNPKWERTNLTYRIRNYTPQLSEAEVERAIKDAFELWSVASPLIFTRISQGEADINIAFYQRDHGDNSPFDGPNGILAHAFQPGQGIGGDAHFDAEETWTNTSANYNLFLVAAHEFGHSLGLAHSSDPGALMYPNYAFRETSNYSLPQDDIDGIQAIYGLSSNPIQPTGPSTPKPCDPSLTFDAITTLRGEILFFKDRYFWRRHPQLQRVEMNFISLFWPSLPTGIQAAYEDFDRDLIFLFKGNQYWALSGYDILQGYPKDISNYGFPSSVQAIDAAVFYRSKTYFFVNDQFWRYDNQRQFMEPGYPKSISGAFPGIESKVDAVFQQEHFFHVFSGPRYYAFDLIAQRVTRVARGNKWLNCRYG
Chain of Stromelysin-1 (P08254 whole entry): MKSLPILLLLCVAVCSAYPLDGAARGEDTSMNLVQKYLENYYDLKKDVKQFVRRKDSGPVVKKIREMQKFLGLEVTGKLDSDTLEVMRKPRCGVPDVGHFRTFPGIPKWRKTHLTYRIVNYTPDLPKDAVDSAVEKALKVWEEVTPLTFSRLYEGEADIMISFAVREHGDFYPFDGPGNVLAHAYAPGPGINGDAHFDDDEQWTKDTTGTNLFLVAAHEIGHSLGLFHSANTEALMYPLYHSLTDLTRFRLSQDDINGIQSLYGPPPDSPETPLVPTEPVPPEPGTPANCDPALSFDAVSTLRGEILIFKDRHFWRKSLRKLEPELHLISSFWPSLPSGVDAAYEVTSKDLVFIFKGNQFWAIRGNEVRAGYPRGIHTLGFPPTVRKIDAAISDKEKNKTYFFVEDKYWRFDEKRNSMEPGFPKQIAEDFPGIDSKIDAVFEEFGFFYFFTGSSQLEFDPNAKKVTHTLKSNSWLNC

Row | Ki [1] [nM] | Ki [2] [nM] | Ki [4] [nM] | Ki [5] [nM] | Compound | Ki [3] [nM]
1 | 472 | 171 | 163 | > 620 | CCCCCCNC(=O)[C@H](Cc1c[nH]c2ccccc12)NC(=O)[C@@H](CC(=O)O)CC(C)C | –
2 | 0.3 | 3 | 0.5 | – | CCCCCCNC(=O)[C@H](Cc1c[nH]c2ccccc12)NC(=O)[C@@H](CC(=O)NO)CC(C)C | –

Continued, compound first:

Row | Compound | Ki [1] [nM] | Ki [2] [nM] | Ki [4] [nM] | Ki [5] [nM] | Ki [3] [nM]
3 | CCCCCCNC(=O)[C@H](Cc1c[nH]c2ccccc12)NC(=O)[C@H](CC(C)C)CP(=O)(O)CSc1ccc2ccccc2n1 | 300 | 432 | 102 | – | 6580
4 | CNC(=O)[C@H](Cc1ccccc1)NC(=O)[C@H](CC(C)C)[C@H](CSc1cccs1)C(=O)O | – | 1500 | – | – | –
5 | CC(C)C[C@H](CP(=O)(O)CSc1ccc2ccccc2n1)C(=O)N[C@H]1Cc2cn(c3ccccc23)CCCCCCNC1=O | 14 | 5 | 4 | – | 806
